pEC50, pIC50: −log10 of the molar value. Like-named read-outs stand apart in the source and are kept apart here.
Experiments:
F1F0-ATPase = biological target: T1, F1F0-ATPase (Bos taurus, UniProt P13621); test: Inhibition of F1F0-ATPase activity in synthesizing ATP (ATP synthesis inhibition); format: biochemical; conditions: detection limit IC50=16 μM, read-out: ATP Syn IC50
T1 construct: from tissue
Protocol: (§1) Exemplary compounds described in above Examples were tested for activity against F1F0-ATPase by measuring the ability of the compounds to inhibit ATP synthesis. In addition, the compounds were assessed for cytotoxicity in Ramos cells. Inhibition of F1F0-ATPase activity in synthesizing ATP and cytotoxicity in Ramos cells were measured according to the procedures described in K. M. Johnson et al. Chemistry & Biology 2005, 12, 485-496.

Ramos cells = test: Cytotoxicity in Ramos cells; format: cell-based; conditions: detection limit EC50=16 μM, read-out: Ramos Cell EC50
Protocol: as §1

Row | SMILES | pIC50 (F1F0-ATPase) | pEC50 (Ramos cells) | pEC50 (Ramos cells; Homo sapiens)
1 | CCOCCCN/C(=N/C(=O)c1cnoc1C)Nc1cc(-c2ccc(Cl)cc2)n[nH]1 [Compound A-104] | < 4.80 | < 4.80 | 
2 | CSc1cccc(N/C(=N\C(=O)c2cn(C)nc2C(F)(F)F)Nc2cc(-c3ccc(O)cc3F)n[nH]2)c1 [Compound A-7] | 4.80 to 5.30 | > 5.30 | 
3 | Cn1cc(C(=O)/N=C(\Nc2cc(-c3ccc(O)c(F)c3)n[nH]2)Nc2ccccc2C(C)(C)C)c(C(F)(F)F)n1 [Compound A-167] | > 5.30 | > 5.30 | 
4 | Cc1cc(C(=O)/N=C(\Nc2cc(-c3cc(F)cc(F)c3)[nH]n2)NC(C)C)c(C(F)(F)F)o1 [Compound A-117] | > 5.30 | 4.80 to 5.30 | 
5 | Cc1oncc1C(=O)/N=C(\Nc1cc(-c2cc(F)cc(F)c2)n[nH]1)NC1(C)CCCC1 [Compound A-95] | > 5.30 | > 5.30 | 
6 | COc1ccc(-c2cc(N/C(=N\C(=O)c3cn(C)nc3C(F)(F)F)Nc3ccc(F)cc3Cl)[nH]n2)cc1F [Compound A-147] | > 5.30 | < 4.80 | 
7 | CC(C)(C)N/C(=N/C(=O)c1ccno1)Nc1cc(-c2ccc(F)cc2)n[nH]1 [Compound A-38] | 4.80 to 5.30 | 4.80 to 5.30 | 
8 | Cc1cc(C(=O)/N=C(\Nc2ccc(C(F)(F)F)nc2)Nc2cccc(Cl)c2)n(C)n1 [Compound A-230] | > 5.30 |  | > 5.30
9 | Cc1oncc1C(=O)/N=C(\Nc1cc(-c2cc(F)cc(F)c2)n[nH]1)NC1CCCC1 [Compound A-78] | > 5.30 | < 4.80 | 
10 | Cc1oncc1C(=O)/N=C(\Nc1cc(-c2cc(F)cc(Cl)c2)n[nH]1)NC1(C)CCCC1 [Compound A-98] | > 5.30 | > 5.30 | 
11 | Cc1nc(C(=O)/N=C(\Nc2cc(-c3ccc(F)cc3)[nH]n2)NC(C)(C)C)c(C(F)(F)F)o1 [Compound A-119] | > 5.30 | 4.80 to 5.30 | 
12 | Cc1oncc1C(=O)/N=C(\Nc1cc(-c2ccc(F)cc2)n[nH]1)NC(C)(C)C [Compound A-188] | > 5.30 | > 5.30 | 
13 | Cc1cc(C(=O)/N=C(\Nc2cc(-c3cc(F)cc(F)c3)n[nH]2)NC2CCCC2)n(C)n1 [Compound A-82] | > 5.30 | 4.80 to 5.30 | 
14 | CCC(C)N/C(=N\C(=O)c1cn(C)nc1C(F)(F)F)Nc1cc(-c2cc(F)cc(F)c2)n[nH]1 (stereo not shown) [Compound A-33] | > 5.30 | > 5.30 | 
15 | COc1ccc(-c2cc(N/C(=N\C(=O)c3cn(C)nc3C(F)(F)F)NC(C)C)n[nH]2)cc1F [Compound A-146] | 4.80 to 5.30 | > 5.30 | 
16 | CCn1nc(C)cc1C(=O)/N=C(\Nc1cc(-c2ccc(F)cc2)n[nH]1)NC(C)C [Compound A-54] | > 5.30 | > 5.30 | 
17 | Cc1cc(F)ccc1N/C(=N/C(=O)c1cn(C)nc1C(F)(F)F)Nc1cc(-c2ccc(O)c(F)c2)n[nH]1 [Compound A-173] | > 5.30 | > 5.30 | 
18 | COC[C@H](C)N/C(=N/C(=O)c1cc(C(C)(C)C)nn1C)Nc1cc(-c2ccc(F)cc2)n[nH]1 [Compound A-50] | > 5.30 | > 5.30 | 
19 | CCn1nc(C)cc1C(=O)/N=C(\Nc1cc(-c2ccc(F)cc2)n[nH]1)NC(C)(C)C [Compound A-53] | > 5.30 | > 5.30 | 
20 | COCC(C)NC(=NC(=O)c1cn(C)nc1C(F)(F)F)Nc1n[nH]c2cc(Cl)ccc12 (stereo not shown) [Compound A-202] | > 5.30 | > 5.30 | 
21 | Cc1cc(C(=O)/N=C(/NCC(C)C)Nc2cc(-c3ccc(F)cc3)n[nH]2)c(C(F)(F)F)o1 [Compound A-203] | > 5.30 | > 5.30 | 
22 | Cn1cc(C(=O)/N=C(/Nc2cc(F)cc(F)c2)Nc2cc(-c3ccc(O)c(F)c3)n[nH]2)c(C(F)(F)F)n1 [Compound A-174] | > 5.30 | > 5.30 | 

Row | SMILES | pIC50 (F1F0-ATPase) | pEC50 (Ramos cells) | pEC50 (Ramos cells; Homo sapiens)
23 | COc1ccc(-c2cc(N/C(=N\C(=O)c3cn(C)nc3C(F)(F)F)NC3CCCC3)n[nH]2)cc1F [Compound A-129] | 4.80 to 5.30 | > 5.30 | 
24 | CC(C)CNC(=NC(=O)c1cn(C)nc1C(F)(F)F)Nc1n[nH]c2cncc(F)c12 [Compound A-143] | < 4.80 |  | 4.80 to 5.30
25 | CC(C)c1cc(C(=O)/N=C(\Nc2cc(-c3ccc(F)cc3)n[nH]2)NC(C)(C)C)on1 [Compound A-61] | > 5.30 | > 5.30 | 
26 | COC[C@H](C)N/C(=N/C(=O)c1cc(C)on1)Nc1cc(-c2ccc(F)cc2)n[nH]1 [Compound A-52] | < 4.80 | < 4.80 | 
27 | CCn1nc(C)cc1C(=O)N=C(Nc1cc(-c2ccc(F)cc2)n[nH]1)NC(C)COC (stereo not shown) [Compound A-55] | 4.80 to 5.30 | 4.80 to 5.30 | 
28 | CSc1ccccc1N/C(=N\C(=O)c1cn(C)nc1C(F)(F)F)Nc1cc(-c2ccc(O)cc2F)n[nH]1 [Compound A-6] | 4.80 to 5.30 | > 5.30 | 
29 | CCOC(=O)NC1CCC(N/C(=N\C(=O)c2cc(C)oc2C(F)(F)F)Nc2ccccc2OC)CC1 (stereo not shown) [Compound A-213] | > 5.30 |  | < 4.80
30 | CC(C)c1ccc(N/C(=N/C(=O)c2cn(C)nc2C(F)(F)F)Nc2cc(-c3ccc(O)c(F)c3)n[nH]2)cc1 [Compound A-175] | 4.80 to 5.30 | > 5.30 | 
31 | Cn1cc(C(=O)/N=C(/NCC(C)(C)C)Nc2cc(-c3ccc(O)c(F)c3)[nH]n2)c(C(F)(F)F)n1 [Compound A-135] | 4.80 to 5.30 | > 5.30 | 
32 | COC[C@H](C)N/C(=N/C(=O)c1cc(C)oc1C(F)(F)F)Nc1cc(C)n[nH]1 [Compound A-113] | < 4.80 | < 4.80 | 
33 | Cc1cc(C(=O)/N=C(/NCc2ccccc2C)Nc2cc(-c3ccc(F)cc3)n[nH]2)no1 [Compound A-42] | > 5.30 | 4.80 to 5.30 | 
34 | CC(C)CN/C(=N/C(=O)c1cn(C)nc1C(F)(F)F)Nc1n[nH]c2cc(Cl)ccc12 [Compound A-201] | > 5.30 | < 4.80 | 
35 | CCOCC(C)N/C(=N/C(=O)c1nc(C)oc1C)Nc1cc(-c2ccc(F)cc2)n[nH]1 (stereo not shown) [Compound A-194] | < 4.80 | > 5.30 | 
36 | Cn1cc(C(=O)/N=C(\Nc2cc(-c3ccc(O)c(F)c3)n[nH]2)Nc2ccc(F)cc2F)c(C(F)(F)F)n1 [Compound A-169] | > 5.30 | > 5.30 | 
37 | CC(C)CN/C(=N/C(=O)c1cn(C)nc1C(F)(F)F)Nc1n[nH]c2cc(F)ccc12 [Compound A-205] | < 4.80 | < 4.80 | 
38 | Cn1cc(C(=O)N=C(Nc2ccc(F)cc2)Nc2cc(-c3ccc(O)cc3F)n[nH]2)c(C(F)(F)F)n1 [Compound A-150] | > 5.30 |  | > 5.30
39 | CC(C)(C)N/C(=N/C(=O)c1nccs1)Nc1cc(C(F)(F)F)n[nH]1 [Compound A-35] | > 5.30 | 4.80 to 5.30 | 
40 | Cn1cc(C(=O)N=C(Nc2cc(-c3ccc(O)cc3F)n[nH]2)NC2CCCC2)c(C(F)(F)F)n1 [Compound A-137] | < 4.80 |  | < 4.80
41 | Cc1cc(C(=O)/N=C(\Nc2cc(-c3ccc(F)cc3)n[nH]2)NC(C)(C)C)on1 [Compound A-40] | 4.80 to 5.30 | < 4.80 | 
42 | CCOCCCN/C(=N\C(=O)c1cn(C)nc1C(F)(F)F)Nc1cc(-c2cc(F)cc(F)c2)n[nH]1 [Compound A-29] | > 5.30 | > 5.30 | 
43 | COc1ccc(-c2cc(N/C(=N\C(=O)c3cn(C)nc3C(F)(F)F)Nc3cccc(F)c3)[nH]n2)cc1F [Compound A-157] | > 5.30 | 4.80 to 5.30 | 
44 | CCOC(=O)NC1CCC(N/C(=N\C(=O)c2cc(C)oc2C(F)(F)F)NCc2ccc(F)cc2Cl)CC1 (stereo not shown) [Compound A-126] | > 5.30 |  | > 5.30

— patent US9221814B2, “Heterocyclic guanidine F1F0-atpase inhibitors and therapeutic uses thereof” (Lycera Corporation, priority 2012, dated 2015)
